According to patent US11965204B2, “Detection of analytes by enzyme-mediated strand displacement reactions” (priority 2020, dated 2024):

B1: MphR: aTF used to sense macrolides; SEQ ID NO: 22 (protein, listed as Escherichia coli)
chain: MPRPKLKSDDEVLEAATVVLKRCGPIEFTLSGVAKEVGLSRAALIQRFTNRDTLLVRMMERGVEQVRHYLNAIPIGAGPQGLWEFLQVLVRSMNTRNDFSVNYLISWYELQVPELRTLAIQRNRAVVEGIRKRLPPGAPAAAELLLHSVIAGATMQWAVDPDGELADHVLAQIAAILCLMFPEHDDFQLLQAHA

Tests used:
[1] = tested on: MphR; assay: MphR-based biosensor, derepression by ligand; assay type: biochemical, E. coli; details: fixed concentration of MphR; erythromycin 0 nM-2.5 uM; FIG. 10
Text: (§1) Here we present two biosensors built with the described mechanism above. As shown in FIGS. 7A-7B, the aTF TetR (SEQ ID NO: 21) can be used to build a tetracycline biosensor using its corresponding operator sequence in the DNA template and partially in the IP (SEQ ID NO: 19). Increasing concentrations of TetR decrease the rate of the reaction as there is less DNA template accessible to HgaI. When the system is repressed by a given concentration of TetR, it can be derepressed by the ligand tetracycline. The rate of the reaction is proportional to the concentration of tetracycline within a certain concentration range (FIG. 8). Similarly, a circuit using the aTF MphR (SEQ ID NO: 22) with its corresponding operator sequence (SEQ ID NOs: 17 and 18) in the DNA template and partially in the IP (SEQ ID NO: 20) can be used to sense macrolides.
(§2) HgaI/Toehold-Mediated Strand Displacement Reactions.

[2] = tested on: DNA template (S) with MphR operator sequence; assay: Titration of MphR in the HgaI/toehold-mediated strand displacement reaction; assay type: biochemical; details: absence of erythromycin; MphR 0 nM-3 uM; FIG. 9B
Text: FIG. 9A illustrates the components of the biosensor, indicating the DNA template (S) and Invading Probe (IP) sequences and modifications.
as §1, §2

Molecule	response of the MphR-repressed reaction to the ligand [1]	effect of increasing aTF concentration on reaction rate [2]
CC[C@H]1OC(=O)[C@H](C)[C@@H](O[C@H]2C[C@@](C)(OC)[C@@H](O)[C@H](C)O2)[C@H](C)[C@@H](O[C@@H]2O[C@H](C)C[C@H](N(C)C)[C@H]2O)[C@](C)(O)C[C@@H](C)C(=O)[C@H](C)[C@@H](O)[C@]1(C)O [erythromycin]	proportionally higher reaction rates	–
B1	–	decrease of the reaction rate
